The values that follow are results of earlier work, collected in patent US20240033213A1, “TOPICAL PHARMACEUTICAL FORMULATION AND METHOD FOR THE TREATMENT OF SYNDROMES ASSOCIATED WITH CHRONIC PELVIC PAIN” (CURALEAF INTERNATIONAL LIMITED, priority 2020, published 2024).

For this series, the target named is T1, TRPV1 receptor (Rattus norvegicus, UniProt O35433).
T1 construct: CBD Effects on TRPV1 Signaling Pathways in Cultured DRG Neurons; host or cells: cultured DRG sensory neurons (endogenous TRPV1)
Conditions: sensory neurons in an animal model, in vitro.

T1 sequence (O35433 whole entry): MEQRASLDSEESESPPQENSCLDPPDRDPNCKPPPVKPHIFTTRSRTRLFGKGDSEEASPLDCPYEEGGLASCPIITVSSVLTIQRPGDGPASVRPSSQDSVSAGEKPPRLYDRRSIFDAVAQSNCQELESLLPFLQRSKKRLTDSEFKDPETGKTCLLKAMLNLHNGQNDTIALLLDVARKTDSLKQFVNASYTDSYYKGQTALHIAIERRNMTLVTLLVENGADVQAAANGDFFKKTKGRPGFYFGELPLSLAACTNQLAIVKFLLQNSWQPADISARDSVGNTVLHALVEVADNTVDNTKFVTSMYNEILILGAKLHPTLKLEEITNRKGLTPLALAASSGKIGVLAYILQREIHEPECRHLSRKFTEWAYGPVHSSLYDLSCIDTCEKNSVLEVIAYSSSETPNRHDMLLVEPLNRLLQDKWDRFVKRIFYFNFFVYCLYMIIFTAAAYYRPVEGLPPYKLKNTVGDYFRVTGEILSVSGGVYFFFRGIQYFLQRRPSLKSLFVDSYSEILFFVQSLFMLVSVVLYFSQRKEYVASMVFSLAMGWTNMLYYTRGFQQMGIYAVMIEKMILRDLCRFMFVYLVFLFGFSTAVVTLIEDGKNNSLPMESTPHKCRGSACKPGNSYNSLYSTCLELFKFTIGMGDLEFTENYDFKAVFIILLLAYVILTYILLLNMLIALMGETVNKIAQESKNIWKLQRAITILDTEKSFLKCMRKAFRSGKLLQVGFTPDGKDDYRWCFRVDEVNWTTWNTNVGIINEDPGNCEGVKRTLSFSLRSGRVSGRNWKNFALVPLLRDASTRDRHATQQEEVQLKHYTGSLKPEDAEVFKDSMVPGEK

For the compound `C=C(C)[C@@H]1CCC(C)=C[C@H]1c1c(O)cc(CCCCC)cc1O` [cannabidiol], the “Effect on neuronal hypersensitivity following TRPV1 activation” value is listed as “inhibit neuronal hypersensitivity following TRPV1 activation”.
